Consider 1 compound from patent US20250228864A1, “THERAPIES FOR THE TREATMENT OF INFLAMMATORY BOWEL DISEASE” (Gilead Sciences, Inc., priority 2023, published 2025).

The subject of this test is IL10−/− knockout mouse colitis model. In words: Example 2: efficacy in mouse IL10−/− knockout colitis model. Type of test: in vivo. As to conditions: 21 days. As for the experimental part: The following study was conducted to evaluate the efficacy of an α4β7 integrin small molecule inhibitor relative to no treatment and to an IL-12/IL-23 inhibitor (anti-p40 antibody a murine surrogate of ustekinumab). […] Endpoint analysis included measurement of colon lamina propria lymphocytes, and histology scoring of the colon tissue.
Mice were treated for three (3) weeks with Formula (III) mixed with food chow (0.125%), and 4 mg/kg anti-p40 dosed intraperitoneally every four (4) days […].
Female IL-10 deficient C57CL/6 mice (aged 12 weeks at study inception) were used in this study. All animal experiments were conducted according to Swiss animal well fare law and approved by the local animal welfare authority of Zurich County (Tierversuchskommission Zürich, Zurich, Switzerland, License No. ZH256-2014).
Mice were administered either standard chow diet (Harlan Teklad Global Diets 2014, TD2014) or standard chow diet plus 0.125% of in chow. Formula (III) schedule was ad libitum while the Anti-p40 antibody was administered via intraperitoneal injection on day 1 and then every four days for three weeks.
The compound was added and mixed into the chow powder at 0.125% concentration, anti-p40 antibody was diluted in phosphate buffered saline (2 mg/mL) (anti-p40 antibody, a murine surrogate of ustekinumab) then dosed at 4 mg/kg every four days by intraperitoneal injection. […] The mice were then treated for three (3) weeks (21-days). On Day 21, mice were sacrificed, blood and tissue samples were collected for further analysis. While untreated IL-10−/− knockout mice progressively lost body weight and manifested colitis activity (measured by weight loss, stool frequency and stool consistency).
Mice were anesthetized with and mixture of ketamine (90-120 mg/kg-1 body weight, Vétoquinol, Bern, Switzerland) and Xylazine (8 mg/kg-1 body weight, Bayer, Lyssach, Switzerland) by intraperitoneal injection. Colonoscopies were performed as described in Becker C, Fantini M C, Neurath M F. High resolution colonoscopy in live mice. Nat. Protoc, 2006; 1:2900-4. The procedure was recorded with a Karl Storz Tele Pack Pal 20,043,020 (Karl Storz Endoskope, Tuttlingen, Germany). Scoring of the colonoscopy was done in accordance with the Murine Endoscopic Index of Colitis Severity (MEICS) scoring system as described in Becker C., Fantini M. C., Neurath M. F. High resolution colonoscopy in live mice. Nat. Protoc. 2006; 1:2900-2904. doi: 10.1038/nprot.2006.446. The following five (5) parameters were assessed: (1) transparency of the colon; (2) changes of the vascular pattern; (3) fibrin visible; (4) granularity of the mucosal surface; and (5) stool consistency.
Tissue Extraction: Mouse colons were extracted and fixed in 4% formalin, embedded in paraffin and then cut into 5-μm sections. The colon sections where then deparaffinized and stained with hematoxylin and eosin.
Mouse colons were extracted and opened up in a longitudinal orientation, placed in a 15 mL falcon tube, rinsed with PBS (Gibco, Thermo Fisher Scientific, Carlsbad, CA, USA). The colon was then cut into 2 mm^2 sized samples and washed with 2% FBS HBSS (Thermo Fisher Scientific). The supernatant was discarded, resuspended in HBSS supplemented with 2 mM EDTA (Thermo Fisher Scientific) and then incubated at 37° C. on a shaker (300 rpm) for 15 minutes. Upon completion of the incubation the tubes were vigorously shaken, the supernatant was carefully discarded, and the sample was washed with HBSS. Next, the samples were resuspended in a digestion buffer consisting of Dispase (0.6 mg/mL, Gibco) supplemented Collagenase IV (0.4 mg/mL; Clostridium Histolyticum, Sigma-Aldrich). The solution was incubated for 20 minutes on a 37° C. shaker (300 rpm). Upon completion, the samples were homogenized by passing the solution through a 18+1.5-gauge needle. Samples where then stained with TH1, TH17, Neutrophils, and Treg antibodies followed by preforming Flow cytometry analysis of the mice immune cells of the colon tissue. […]

Molecules are shown by their SMILES.

With `CCOC(=O)[C@H](Cc1ccc(-n2c(=O)c3ccncc3n(C)c2=O)c2ncccc12)NC(=O)c1c(C)cc(N2CCOC[C@@H]2C(F)(F)F)cc1F` (atropisomer, axis not shown) [Formula (III)], the “proinflammatory cytokines detected in the blood” value was “reduced proinflammatory cytokines”. Also, under “0.125% in chow ad libitum”, the “disease activity (weight loss, stool frequency, stool consistency)” value is “reduced disease activity”. The body weight loss entry (0.125% in chow ad libitum, vs untreated IL-10−/− mice) is on record as “ameliorated body weight loss”. In addition, for the setting “0.125% in chow”, the “TH1 cells in colon tissue (flow cytometry)” value is on record as “significantly reduced”, the “TH17 cells in colon tissue (flow cytometry)” value is listed as “significantly reduced”, the “frequency of the Treg in colon tissue (flow cytometry)” value is on record as “without affecting” and the “neutrophils in colon tissue (flow cytometry)” value is “significantly reduced”. Also, the histopathology score result (0.125% in chow, compared to the non-treatment group) is “reduced histopathology score”. The “colonoscopy score (MEICS)” value (0.125% in chow, over the non-treatment group) was “significantly improved”. Further, for the setting “single agent”, the intestine inflammation entry was “significantly ameliorates”.
